Literature values in US20060155301A1, “Methods and devices usable in eye surgery” (priority 2002, published 2006).
Read-outs that look alike come from different tables or passages of the source.

Legend:
lens epithelial cells [1] = details: in vitro
lens epithelial cells [2] = details: EDTA solution in irrigation solution, cadaver eyes
lens epithelial cells [3] = details: 2% trypsin solution in irrigation solution, cadaver eyes

O=c1[nH]cc(F)c(=O)[nH]1 [5 fluorouracil]
inhibiting lens epithelial cells proliferation (lens epithelial cells [1]): effective

O=C(O)CN(CCN(CC(=O)O)CC(=O)O)CC(=O)O [EDTA, Ethylenediamine tetraacetic acid]
separation of lens epithelial cells (lens epithelial cells [2]): the anterior lens epithelial cells could be separated

COc1cc2c(c(OC)c1OC)-c1ccc(OC)c(=O)cc1[C@@H](NC(C)=O)CC2 [colchicines]
inhibiting lens epithelial cells proliferation (lens epithelial cells [1]): effective

COc1cccc2c1C(=O)c1c(O)c3c(c(O)c1C2=O)C[C@@](O)(C(C)=O)C[C@@H]3O[C@H]1C[C@H](N)[C@H](O)[C@H](C)O1 [daunomycin/daunorubicin]
inhibiting lens epithelial cells proliferation (lens epithelial cells [1]): effective

COc1cccc2c1C(=O)c1c(O)c3c(c(O)c1C2=O)C[C@@](O)(C(=O)CO)C[C@@H]3O[C@H]1C[C@H](N)[C@H](O)[C@H](C)O1 [doxorubicin]
inhibiting lens epithelial cells proliferation (lens epithelial cells [1]): effective

CN(Cc1cnc2nc(N)nc(N)c2n1)c1ccc(C(=O)N[C@@H](CCC(=O)O)C(=O)O)cc1 [methotrexate]
inhibiting lens epithelial cells proliferation (lens epithelial cells [1]): effective

CO[C@@]12[C@H](COC(N)=O)C3=C(C(=O)C(C)=C(N)C3=O)N1C[C@@H]1N[C@@H]12 [mitomycin]
inhibiting lens epithelial cells proliferation (lens epithelial cells [1]): effective

CC(=O)O[C@H]1C(=O)[C@@]2(C)[C@H]([C@H](OC(=O)c3ccccc3)[C@]3(O)C[C@H](OC(=O)[C@H](O)[C@@H](NC(=O)c4ccccc4)c4ccccc4)C(C)=C1C3(C)C)[C@]1(OC(C)=O)CO[C@@H]1C[C@@H]2O [taxol]
inhibiting lens epithelial cells proliferation (lens epithelial cells [1]): effective

B1: trypsin (protein, UniProt P00760 24-246, looked up)
Serine protease 1: IVGGYTCGANTVPYQVSLNSGYHFCGGSLINSQWVVSAAHCYKSGIQVRLGEDNINVVEGNEQFISASKSIVHPSYNSNTLNNDIMLIKLKSAASLNSRVASISLPTSCASAGTQCLISGWGNTKSSGTSYPDVLKCLKAPILSDSSCKSAYPGQITSNMFCAGYLEGGKDSCQGDSGGPVVCSGKLQGIVSWGSGCAQKNKPGVYTKVCNYVSWIKQTIASN
notes: enzyme evaluated for separation of lens epithelial cells
damage to the zonules (lens epithelial cells [3]): the zonules were damaged
separation of lens epithelial cells (lens epithelial cells [3]): lens epithelial cells were stripped in places
